PubChem BioAssay AID1919008 (Molecular Pharmacology Branch, DTP, NCI, 2023)
Where “and” joins values, the source holds several entries; their conditions need not be identical. Identical values can stand only once.

Test system: DMS-114 complex spheroids with HUVEC/MSC, growth % test/control
Assay: Anticancer human tumor DMS-114 cell line growth inhibition [AhR];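 further: spheroids exposed to agents for 7 days before readout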;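 on viability, T/C: 100% = DMSO vehicle control wells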
Conditions: for viability, T/C: stronger effect = lower value
From the text: Multicellular complex tumor spheroid response to aryl hydrocarbon receptor antagonists in combination with a variety of drugs and investigational agents in selected tumor cell lines
The current study was undertaken to assess response to aryl hydrocarbon receptor antagonists in combination with standard-of-care drugs and investigational agents in solid tumor complex spheroid models. Complex spheroids include a stromal component modeled by human endothelial cells (HUVEC) and fibroblasts modeled by human mesenchymal stem cells (MSCs). The concentration ranges selected for each drug and investigational agent were based upon clinically achievable concentrations if the clinical Cmax of the agent was known.
Compounds. The drugs and investigational agents: BAY 2416964 (NSC825713), GNF351 (NSC835774), CH-223191 (NSC835775), CPI-455 (NSC825282), aza-TdCyd (NSC777586), decitabine (NSC127716), belinostat (NSC758774), entinostat (NSC756642), pevonedistat (NSC761192), tazemetostat (NSC777109), talazoparib (NSC765396), olaparib (NSC753686), selinexor (NSC780203), nedisertib (M3814, NSC802822), bortezomib (NSC756655), venetoclax (NSC766270), doxorubicin (NSC123127), elimusertib (BAY189344, NSC800525), ceralasertib (AZD6738, NSC777638), TAK-243 (NSC785004), alisertib (NSC759677), etoposide (NSC141540), topotecan (NSC609699), eribulin (NSC707389), gemcitabine (NSC613327), carboplatin (NSC241240), cisplatin (NSC119875), and SN-38 (NSC673596) were obtained from the National Cancer Institute (NCI) Developmental Therapeutics Program Chemical Repository (32). The FDA-approved anticancer drug set is available from the Developmental Therapeutics Program at https://dtp.cancer.gov/organization/dscb/obtaining/available plates.htm. […] The stock solutions were prepared in dimethyl sulfoxide (DMSO, Sigma-Aldrich, St. Louis, MO, cat. D2650), except for the platinum compounds which were prepared in saline (Quality Biological, Gaithersburg, MD, cat. 114-055-101), at 800-fold the tested concentration and stored at -70 degrees C prior to their use. All drugs and investigational agents were tested over a range starting from a high concentration at or near the clinical Cmax and decreasing in half-log increments. If the clinical Cmax for an agent had not been determined, the highest concentration tested was 10 microM (Table 1).
Cell Culture. All cells were maintained in an incubator at 37 degrees C and 5% CO2 with 95% humidity. The PDC lines were cultured according to standard operating procedures established by the NCI PDMR (https://pdmr.cancer.gov). Briefly, all PDCs were thawed and cultured in Matrigel-coated flasks prepared with a working solution of 1X Ham's F-12 nutrient mix, without supplementation (Invitrogen, Waltham, MA, cat. 11765054), 100 U/mL penicillin-streptomycin (Invitrogen, cat. 15140122), and 2.5% Matrigel (Corning Inc., Corning, NY, cat. 354248) for the first three passages. All PDCs were cultured in complete DMEM/F-12 media containing advanced DMEM/F-12 (Invitrogen, cat. 12634028), 4.9% defined fetal bovine serum, heat inactivated (HyClone Laboratories Inc., Logan, UT, cat. SH30070.03HI), 389 ng/mL hydrocortisone (Sigma-Aldrich, cat. H4001), 9.7 ng/mL human EGF recombinant protein (Invitrogen, cat. PHG0313), 23.4 microg/mL adenine (Sigma-Aldrich, cat. A2786), 97.3 U/mL penicillin-streptomycin (Invitrogen, cat. 15140122), 1.9 mM L-glutamine (Invitrogen, cat. 25030081), and 9.7 microM Y-27632 dihydrochloride (Tocris Bioscience, Bristol, United Kingdom, cat. 1254). The PDCs were cultured in complete DMEM/F12 media without 10 microM Y-27632 dihydrochloride for at least two passages prior to the screen. The established cell lines NCI-H1341 and […] were cultured in DMEM/F-12, HEPES (Invitrogen, cat. 11330032), 5% defined fetal bovine serum (HyClone Laboratories Inc., cat. SH30070.03), ITS premix universal culture supplement [insulin (5 microg/mL), transferrin (5 microg/mL), and selenious acid (5 ng/mL)] […]

[1] = curve of first compound, second compound 0.1 µM
[2] = curve of first compound, second compound 0.316 µM
[3] = curve of first compound, second compound 1 µM
[4] = curve of first compound, second compound 3.16 µM
[5] = curve of first compound, second compound 10 µM
[6] = second compound 0.1 µM, first compound 0.0316 µM
[7] = second compound 0.1 µM, first compound 0.1 µM
[8] = second compound 0.1 µM, first compound 0.316 µM
[9] = second compound 0.1 µM, first compound 1 µM
[10] = second compound 0.1 µM, first compound 3.16 µM
[11] = second compound 0.1 µM, first compound 10 µM
[12] = second compound 0.316 µM, first compound 0.0316 µM
[13] = second compound 0.316 µM, first compound 0.1 µM
[14] = second compound 0.316 µM, first compound 0.316 µM
[15] = second compound 0.316 µM, first compound 1 µM
[16] = second compound 0.316 µM, first compound 3.16 µM
[17] = second compound 0.316 µM, first compound 10 µM
[18] = second compound 1 µM, first compound 0.0316 µM
[19] = second compound 1 µM, first compound 0.1 µM
[20] = second compound 1 µM, first compound 0.316 µM
[21] = second compound 1 µM, first compound 1 µM
[22] = second compound 1 µM, first compound 3.16 µM
[23] = second compound 1 µM, first compound 10 µM
[24] = second compound 3.16 µM, first compound 0.0316 µM
[25] = second compound 3.16 µM, first compound 0.1 µM
[26] = second compound 3.16 µM, first compound 0.316 µM
[27] = second compound 3.16 µM, first compound 1 µM
[28] = second compound 3.16 µM, first compound 3.16 µM
[29] = second compound 3.16 µM, first compound 10 µM
[30] = second compound 10 µM, first compound 0.0316 µM
[31] = second compound 10 µM, first compound 0.1 µM
[32] = second compound 10 µM, first compound 0.316 µM
[33] = second compound 10 µM, first compound 1 µM
[34] = second compound 10 µM, first compound 3.16 µM
[35] = second compound 10 µM, first compound 10 µM

## Nc1ccn(C2OC(CO)C(O)C2(F)F)c(=O)n1 (centres undefined)
Compound 0.0316 µM
  viability, T/C: 9.8% and 13.2% and 25.1%
Compound 0.1 µM
  viability, T/C: 8.85% and 12.6% and 26.8%
Compound 0.316 µM
  viability, T/C: 9.58% and 12.2% and 25.9%
Compound 1 µM
  viability, T/C: 10.4% and 11% and 25.1%
Compound 3.16 µM
  viability, T/C: 9.16% and 11.7% and 24.5%
Compound 10 µM
  viability, T/C: 9.05% and 10.8% and 25.4%
Curve of compound
  IC50: < 31.6 nM

## O=C(C=Cc1cccc(S(=O)(=O)Nc2ccccc2)c1)NO + Cc1ccccc1N=Nc1ccc(NC(=O)c2ccnn2C)c(C)c1
[1]
  IC50: 1850 nM
[2]
  IC50: 1720 nM
[3]
  IC50: 1750 nM
[4]
  IC50: 1660 nM
[5]
  IC50: 1670 nM
[6]
  viability, T/C: 101%
[7]
  viability, T/C: 101%
[8]
  viability, T/C: 96.1%
[9]
  viability, T/C: 74.5%
[10]
  viability, T/C: 27.4%
[11]
  viability, T/C: 30.3%
[12]
  viability, T/C: 96.6%
[13]
  viability, T/C: 95.2%
[14]
  viability, T/C: 101%
[15]
  viability, T/C: 68.8%
[16]
  viability, T/C: 30.1%
[17]
  viability, T/C: 27.4%
[18]
  viability, T/C: 99%
[19]
  viability, T/C: 102%
[20]
  viability, T/C: 94.7%
[21]
  viability, T/C: 71.1%
[22]
  viability, T/C: 26.4%
[23]
  viability, T/C: 29.1%
[24]
  viability, T/C: 101%
[25]
  viability, T/C: 97.5%
[26]
  viability, T/C: 91.2%
[27]
  viability, T/C: 66%
[28]
  viability, T/C: 28.7%
[29]
  viability, T/C: 28.7%
[30]
  viability, T/C: 88.7%
[31]
  viability, T/C: 96.1%
[32]
  viability, T/C: 86.5%
[33]
  viability, T/C: 65.8%
[34]
  viability, T/C: 29.5%
[35]
  viability, T/C: 29.9%

## Nc1ccccc1NC(=O)c1ccc(CNC(=O)OCc2cccnc2)cc1 + CC(CO)NC(=O)c1cc(-c2ccc(Cl)cc2)nn(-c2cnn(C)c2)c1=O
[1]
  IC50: 749 nM
[2]
  IC50: 782 nM
[3]
  IC50: 726 nM
[4]
  IC50: 650 nM
[5]
  IC50: 813 nM
[6]
  viability, T/C: 87.3%
[7]
  viability, T/C: 85.8%
[8]
  viability, T/C: 68.2%
[9]
  viability, T/C: 43.6%
[10]
  viability, T/C: 23.1%
[11]
  viability, T/C: 13.4%
[12]
  viability, T/C: 87%
[13]
  viability, T/C: 89.7%
[14]
  viability, T/C: 76.4%
[15]
  viability, T/C: 42.3%
[16]
  viability, T/C: 20.6%
[17]
  viability, T/C: 13.5%
[18]
  viability, T/C: 91.2%
[19]
  viability, T/C: 87.6%
[20]
  viability, T/C: 73.4%
[21]
  viability, T/C: 39.8%
[22]
  viability, T/C: 24.6%
[23]
  viability, T/C: 14.8%
[24]
  viability, T/C: 92.8%
[25]
  viability, T/C: 75.4%
[26]
  viability, T/C: 68.5%
[27]
  viability, T/C: 40.1%
[28]
  viability, T/C: 23.2%
[29]
  viability, T/C: 14.8%
[30]
  viability, T/C: 90%
[31]
  viability, T/C: 87.7%
[32]
  viability, T/C: 69.2%
[33]
  viability, T/C: 45.8%
[34]
  viability, T/C: 24.9%
[35]
  viability, T/C: 14.4%

## O=C(C=Cn1cnc(-c2cc(C(F)(F)F)cc(C(F)(F)F)c2)n1)NNc1cnccn1 + CC(CO)NC(=O)c1cc(-c2ccc(Cl)cc2)nn(-c2cnn(C)c2)c1=O
[1]
  IC50: 183 nM
[2]
  IC50: 156 nM
[3]
  IC50: 169 nM
[4]
  IC50: 180 nM
[5]
  IC50: 209 nM
Second compound 0.1 µM, first compound 0.00949 µM
  viability, T/C: 103%
Second compound 0.1 µM, first compound 0.03 µM
  viability, T/C: 99.2%
Second compound 0.1 µM, first compound 0.0949 µM
  viability, T/C: 63.3%
Second compound 0.1 µM, first compound 0.3 µM
  viability, T/C: 38.2%
Second compound 0.1 µM, first compound 0.949 µM
  viability, T/C: 18.7%
Second compound 0.1 µM, first compound 3 µM
  viability, T/C: 7.72%
Second compound 0.316 µM, first compound 0.00949 µM
  viability, T/C: 97.8%
Second compound 0.316 µM, first compound 0.03 µM
  viability, T/C: 93.9%
Second compound 0.316 µM, first compound 0.0949 µM
  viability, T/C: 57.2%
Second compound 0.316 µM, first compound 0.3 µM
  viability, T/C: 36.1%
Second compound 0.316 µM, first compound 0.949 µM
  viability, T/C: 16.8%
Second compound 0.316 µM, first compound 3 µM
  viability, T/C: 7.29%
Second compound 1 µM, first compound 0.00949 µM
  viability, T/C: 85.8%
Second compound 1 µM, first compound 0.03 µM
  viability, T/C: 97.2%
Second compound 1 µM, first compound 0.0949 µM
  viability, T/C: 59.4%
Second compound 1 µM, first compound 0.3 µM
  viability, T/C: 37%
Second compound 1 µM, first compound 0.949 µM
  viability, T/C: 16.4%
Second compound 1 µM, first compound 3 µM
  viability, T/C: 8.32%
Second compound 3.16 µM, first compound 0.00949 µM
  viability, T/C: 97.1%
Second compound 3.16 µM, first compound 0.03 µM
  viability, T/C: 121%
Second compound 3.16 µM, first compound 0.0949 µM
  viability, T/C: 54.1%
Second compound 3.16 µM, first compound 0.3 µM
  viability, T/C: 43.9%
Second compound 3.16 µM, first compound 0.949 µM
  viability, T/C: 17.7%
Second compound 3.16 µM, first compound 3 µM
  viability, T/C: 6.66%
Second compound 10 µM, first compound 0.00949 µM
  viability, T/C: 95.2%
Second compound 10 µM, first compound 0.03 µM
  viability, T/C: 96.4%
Second compound 10 µM, first compound 0.0949 µM
  viability, T/C: 64.2%
Second compound 10 µM, first compound 0.3 µM
  viability, T/C: 44%
Second compound 10 µM, first compound 0.949 µM
  viability, T/C: 18.4%
Second compound 10 µM, first compound 3 µM
  viability, T/C: 9.22%

## CC1COCCN1c1cc(C2(S(C)(=N)=O)CC2)nc(-c2ccnc3[nH]ccc23)n1 (centres undefined)
Compound 0.0316 µM
  viability, T/C: 99.2% and 97.3% and 90.2%
Compound 0.1 µM
  viability, T/C: 114% and 106% and 101%
Compound 0.316 µM
  viability, T/C: 99.1% and 96.2% and 87.3%
Compound 1 µM
  viability, T/C: 98.6% and 98.9% and 78.1%
Compound 3.16 µM
  viability, T/C: 66.1% and 101% and 65.9%
Compound 10 µM
  viability, T/C: 27.7% and 76.4% and 33.8%
Curve of compound
  IC50: 5130 nM and > 10000 nM and 5460 nM
